# Data taken from patent US8748369B2, “Use of targeted nitroxide agents in bone healing” (University of Pittsburgh-Of the Commonwealth System of …, priority 2009, dated 2014).
# How the values were obtained:
# [1] = tested on: mitochondria of 32D c13 hemopoietic cells; test: Mass spectrometry of compounds in mitochondria isolated from 32D cl3 cells; assay type: cell-based, mouse; details: 100 μM; for permeation of the mitochondrial membrane (unconjugated compound): two hours at 37° C.; for Fmole/l 0 M mitochondrial protein (relative quantification of conjugate concentration at the target site): mouse, 2 h
# Procedure: An unconjugated and conjugated NOS antagonist, (AMT, 100 μM) and an unconjugated and conjugated nitroxide derivative (4-amino-TEMPO, 100 μM) were incubated for two hours at 37° C. with 32D c13 hemopoietic cells.
# Following incubation, the cells were lysed and the mitochondria isolated for a mass spectrometry analysis where compounds isolated from mitochondria were identified as Na+ adducts. […] Thus, the targeting peptides successfully direct a NOS antagonist and a nitroxide to the mitochondria.
# Quantitative mass spectrometry studies were used to compare the effectiveness of several AMT peptide conjugates in permeating the mitochondrial membrane, specifically XJB-5-234, XJB-5-133, XJB-5-241, and XJB-5-127. The Fmole/10 μM mitochondrial protein ratio provides a relative quantification of conjugate concentration at the target site.
# [2] = tested on: mouse embryonic cells (MEC), mitochondria; test: EPR-based analysis of integration and reduction of nitroxide conjugates in MECs; assay type: cell-based; details: MECs incubated with 10 μM compound
# Procedure: Electron paramagnetic resonance (“EPR”) spectroscopy was used to monitor the cellular delivery of compounds 5a and 5b shown in FIG. 3 in mouse embryonic cells (“MEC”).
# The following conditions were used during the EPR-based analysis of the integration and reduction of nitroxide Gramicidin S-peptidyl conjugates in MECs. The MECs at a concentration of 10 million MECs per mL were incubated with 10 μM of 4-AT and compound 5a, respectively. Recovered nitroxide radicals in whole cells, mitochondria, and cytosol fractions were resuspended in phosphate buffer saline (“PBS”) in the presence and absence, respectively, of 2 μM K3Fe(CN)6.
# [3] = tested on: mouse embryonic cells (MEC); test: ActD-induced apoptosis in MECs (PS externalization, caspase-3, DNA fragmentation); assay type: cell-based; details: low concentrations (10 μM)
# Excerpt: Cells that annexin V-positive and PI-negative were considered apoptotic.
# [4] = tested on: 32D cl 3 murine hematopoietic cells; test: Irradiation survival curves of 32D cl 3 cells; assay type: cell-based, mouse; details: cells incubated in compound
# Procedure: FIG. 16 illustrates the effect of GS conjugated nitroxide, XJB-5-125, on gamma-irradiation dose survival curves of 32D cl 3 murine hematopoietic cells.
# Irradiation survival curves were performed on cells from the 32D cl 3 mouse hematopoietic progenitor cell line, incubated in 10 μM JP4-039 for 1 hour before irradiation, or plated in methycellulose containing 10 μM JP4-030 after irradiation. Cells were irradiated from 0 to 8 Gy, plated in 0.8% methycellulose containing media, and incubated for 7 days at 37° C. Colonies of greater than 50 cells were counted and data analyzed by linear quadratic and single-hit, multi-target models.
# [5] = tested on: rat ileal mucosal permeability following hemorrhagic shock; test: Intestinal mucosal permeability assay (FD4) after hemorrhagic shock; assay type: in vivo; details: intraluminal
# Procedure: Intestinal Mucosal Permeability Assay. Animals were allowed access to water but not food for 24 h prior to the experiment in order to decrease the volume of intestinal contents. The rats were instrumented as described above. A midline laparotomy was performed and the small intestine was exteriorized from the duodenojejunal junction to the ileocecal valve. A small incision was made on the antimesenteric aspect of the proximal small intestine and saline solution (1.5 ml) was injected. The bowel was ligated proximally and distally to the incision with 4-0 silk (Look, Reading, Pa.).
# The small intestine was compressed gently in aboral direction along its length to displace intestinal contents into the colon. Starting 5 cm from the ileocecal valve, the ileum was partitioned into six contiguous water-tight segments. […]
# The remaining four other segments were injected with solutions containing either 4-hydroxy-2,2,6,6-tetramethylpiperidine-N-oxyl (TEMPOL) or one of the Gramicidin S-based compounds. Four different final concentrations of TEMPOL in normal saline were evaluated: 0.1, 1, 5 and 20 mM. […]
# Fluorescence of FD4 in the solution inside the beaker and within each gut sac was measured using a fluorescence spectrophotometer (LS-50, Perkin-Elmer, Palo Alto, Calif.) at an excitation wavelength of 492 nm and an emission wavelength of 515 nm. […]
# [6] = tested on: rats subjected to volume-controlled hemorrhagic shock; test: Survival of rats subjected to volume-controlled hemorrhagic shock; assay type: in vivo, rat; details: 2 μmol/kg intravenous, no resuscitation
# Procedure: Survival of Rats Subjected to Volume-controlled Hemorrhagic Shock. Following surgical preparation and a 5-min stabilization period to obtain baseline readings, rats were subjected to hemorrhagic shock. Bleeding was carried out in 2 phases.
# Initially, 21 ml/kg of blood was withdrawn over 20 min. Immediately thereafter, an additional 12.5 ml/kg of blood was withdrawn over 40 min. Thus, hemorrhage occurred over a total period of 60 min and the total blood loss was 33.5 ml/kg or approximately 55% of the total blood volume. Rats were randomly assigned to receive XJB-5-131 (2 μmmol/kg) or its vehicle, a 33:67 (v/v) mixture of DMSO and normal saline. XJB-5-131 solution or vehicle alone was administered as a continuous infusion during the last 20 min of the hemorrhage period. The total volume of fluid infused was 2.8 ml/kg and it was administered intravenously using a syringe pump (KD100, KD Scientific, New Hope, Pa.). […] At the end of the 6 hour observation period, animals that were still alive were euthanized with an overdose of KCl.
# Blood pressure was recorded continuously using a commercial strain-gauge transducer, amplifier, and monitor (590603a, SpaceLabs, Redmond, Wash.). […] Hemoglobin concentration [Hb], lactate and glucose concentration were determined using an auto-analyzer (Model ABL 725, Radiometer Copenhagen, Westlake, Ohio). […]
structure (smiles),measurement,setting,value
"CC1CCN=C(N)S1 (stereo not drawn) [AMT, 2-amino-6-methyl-thiazine, reference compound]",permeation of the mitochondrial membrane (unconjugated compound),[1],do not enter the mitochondria membrane in substantial quantities
"CC1(C)CC(N)CC(C)(C)N1[O] [Compound 4-AT, 4-amino-TEMPO, reference compound]",permeation of the mitochondrial membrane (unconjugated compound),[1],only permeate the mitochondrial membrane with the assistance of the attached GS-derived targeting sequence
same,integration into cells and mitochondria (EPR signal of nitroxide radicals),[2],did not effectively permeate cells or the mitochondria
same,protection of MECs against ActD-induced apoptosis,[3],afforded no protection
"CC1(C)CC(O)CC(C)(C)N1[O] [TEMPOL, 4-hydroxy-2,2,6,6-tetramethylpiperidine-N-oxyl, reference compound]",Do of gamma-irradiation survival curve,[4],1.209 Gy
CC(C)C[C@@H](/C=C/[C@H](Cc1ccccc1)C(=O)N1CCC[C@H]1C(=O)N[C@H](C(=O)N[C@@H](CCCNC(=O)OCc1ccccc1)C(=O)NC1CC(C)(C)N([O])C(C)(C)C1)C(C)C)NC(=O)OC(C)(C)C [XJB-5-131],hemorrhagic shock-induced mucosal hyperpermeability relative to control value,[5],approximately 60%
same,survival versus vehicle,[6],survived significantly longer
same,integration into cells and mitochondria (EPR signal of nitroxide radicals),[2],concentrated in the mitochondria
same,integration into cells and mitochondria (EPR signal of nitroxide radicals),[2]; listed as 5a,integration and one-electron reduction
"CC(C)C[C@@H](/C=C/[C@H](Cc1ccccc1)C(=O)N1CCC[C@H]1C(=O)N[C@H](C(=O)N[C@@H](CCCNC(=O)OCc1ccccc1)C(=O)NC1=NCCC(C)S1)C(C)C)NC(=O)OC(C)(C)C (stereo partly drawn) [XJB-5-133, Boc-Leu-ψ[(E)-CH═CH]-^DPhe-Pro-Val-Orn(Cbz)-AMT]",Fmole/l 0 M mitochondrial protein (relative quantification of conjugate concentration at the target site),[1],89.8 Fmole/l 0 M mitochondrial protein
"CC(C)C[C@@H](/C=C/[C@H](Cc1ccccc1)C(=O)NC1=NCCC(C)S1)NC(=O)OC(C)(C)C (stereo partly drawn) [XJB-5-234, Boc-Leu-ψ[(E)-CH═CH]-^DPhe-AMT]",Fmole/l 0 M mitochondrial protein (relative quantification of conjugate concentration at the target site),[1],1.45 Fmole/l 0 M mitochondrial protein
"C/C(=C\[C@H](Cc1ccccc1)C(=O)N1CCC[C@H]1C(=O)N[C@H](C(=O)N[C@@H](CCCNC(=O)OCc1ccccc1)C(=O)NC1=NCCC(C)S1)C(C)C)[C@H](CC(C)C)NC(=O)OC(C)(C)C (stereo partly drawn) [XJB-5-241, Boc-Leu-104 [(E)-C(CH3)═CH]-^DPhe-Pro-Val-Orn(Cbz)-AMT]",Fmole/l 0 M mitochondrial protein (relative quantification of conjugate concentration at the target site),[1],103.3 Fmole/l 0 M mitochondrial protein
